What was measured:
[1] = system: parental HEK cells; assay: HEK parental Antagonist Counterscreen Assay (non-transfected cells, acetylcholine control); assay type: cell-based; settings: for EC50: Homo sapiens, HEK293, acetylcholine as control, scientific notation, molarity
Description: C. […] The HEK parental counterscreen utilized the same cells but not transfected with the plasmid. The agonist and antagonist modes were run the same way as the primary screen but acetylcholine was used in place of GPR139 agonist as the control compound.
The HEK parental counterscreen utilized the same cells but not transfected with the plasmid. The antagonist modes assays utilized the cells being plated in the 1536 well plate overnight in growth media prior to dye loading in PDL coated plates and acetylcholine was used in place of GPR139 agonist as the control compound.
(§1) The HEK parental counterscreen utilized the same cells but not transfected with the plasmid. Acetylcholine was used in place of GPR139 agonist as the control compound. The cells were plated overnight, similar to the HEK antagonist counterscreen protocol.
The HEK parental counterscreens utilized the same cells but not transfected with the plasmid. Acetylcholine was used in place of GPR139 agonist as the control compound. The cells were plated overnight, similar to the HEK antagonist counterscreen protocol.
(§2) For each test compound, percent activation was plotted against compound concentration. A four parameter equation describing a sigmoidal dose-response curve was then fitted with adjustable baseline using Assay Explorer software (Symyx Technologies Inc.).

[2] = biological target: T1, GPR139 (Homo sapiens, UniProt Q6DWJ6); assay: GPR139 Agonist titration / agonist counterscreen assay (calcium detection, HEK-GPR139 cells); assay type: cell-based; parameters: expressed in transfected cells; host or cells: HEK Aequorin cells, Maxcyte transient transfection; settings: agonist counterscreen of the antagonists; for EC50: scientific notation, molarity, read-out: GRP139 Agonist activity EC50
T1 sequence (Q6DWJ6 1-353): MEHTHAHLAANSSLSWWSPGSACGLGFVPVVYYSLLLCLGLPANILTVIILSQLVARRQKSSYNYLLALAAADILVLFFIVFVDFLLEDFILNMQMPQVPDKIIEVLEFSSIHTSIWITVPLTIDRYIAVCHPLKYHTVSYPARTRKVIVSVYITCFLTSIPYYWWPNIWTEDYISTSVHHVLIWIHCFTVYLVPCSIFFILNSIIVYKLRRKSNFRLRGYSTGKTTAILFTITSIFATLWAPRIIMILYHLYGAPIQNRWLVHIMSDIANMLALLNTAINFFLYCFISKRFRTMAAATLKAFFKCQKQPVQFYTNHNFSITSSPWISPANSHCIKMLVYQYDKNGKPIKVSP
Protocol: GPR activity was assessed using a calcium detection assay. […] Negative control samples were treated with DMSO. […] Intracellular calcium was measured using Calcium 5.

[3] = biological target: T1, GPR139; assay: GPR139 Antagonist titration assay (calcium detection, HEK-GPR139 cells, vs EC80 of S-JNJ-63533054); settings: for GPR139 Antagonist Activity Averaged Max % Response (±St. Dev.): activity relative to known control; for GPR139 Antagonist Activity Lipophilic Efficiency (logD): based on logD; for GPR139 Antagonist Activity Lipophilic Efficiency (logP): based on logP; for GPR139 Antagonist Activity Hill Slope: fitted dose-response curve
Protocol: GPR activity was assessed using a calcium detection assay. GPR139 agonists stimulate an increase in intracellular calcium in HEK-GPR139 cells. Agonists increase the release of intracellular calcium, while antagonists decrease the release of intracellular calcium, as compared to an EC80 stimulation of the know agonist S-JNJ-63533054. The positive control for the agonist mode was cells treated with EC100 of known agonist S-JNJ-63533054. Negative control samples were treated with DMSO. The antagonist high control in cells was EC80 of S-JNJ-63533054+IC100 S-JNJ-3792165, while cells were treated with EC80 of S-JNJ-63533054+DMSO for the low control. Intracellular calcium was measured using Calcium 5.
HEK cells were transfected the DNA encoding GPR139 and incubated for 24 hours. 3000 cells/well in 3 μL HEPES and 1% DMSO were seeded into 1536-well plates. 3 μL Calcium 5 was then added to each well and cells were incubated for 60 min. at 37° C. in 5% CO2 and 95% relative humidity. Cells were pretreated with 50 nL DMSO (5 min. at room temperature in the dark) to stabilize response and desensitize cells to DMSO. A 5 second basal read was recorded and compounds in 30 nL were added to the cells, followed by a 150 second read.
B. Antagonist Mode: The “High Control” represented wells containing cells with GPR139+Antagonist IC100+Agonist EC80. “Low Control” represented wells containing cells with GPR139 with EC100 Agonist. “0% control” and sample field represented wells containing cells with GPR139 with EC80 Agonist with DMSO or compounds. The Z′ and S:B for this assay were calculated using the High Control and Low Control wells.
as §1
The GPR139 Agonist and Antagonist titration assays employed the same reagents, protocols, and detection systems as the primary assays, but tested each as 10 point dose response starting at 676 nM concentration in triplicate with 1:3 dilutions. The HEK parental counterscreens utilized the same cells but not transfected with the plasmid. Acetylcholine was used in place of GPR139 agonist as the control compound. The cells were plated overnight, similar to the HEK antagonist counterscreen protocol.
as §2

Compound	GRP139 Agonist activity Averaged Max % Response (±St. Dev.) [2]	EC50 [2] [µM]	EC50 [3] [µM]	GPR139 Antagonist Activity Ligand Efficiency [3]	GPR139 Antagonist Activity Averaged Max % Response (±St. Dev.) [3] [%]	GPR139 Antagonist Activity Lipophilic Efficiency (logD) [3]	GPR139 Antagonist Activity Lipophilic Efficiency (logP) [3]	GPR139 Antagonist Activity Hill Slope [3]	HEK antagonist activity Averaged Max % Response (±St. Dev.) [1]	EC50 [1] [µM]
CC(=O)N1N=C(c2ccc(C)cc2)CC1c1ccccc1F (stereo not shown) [SR-01000429850]	4.88 ± 6.79%	–	–	0.31	48.35 ± 1.75	1.00	1.00	–	−3.2E+0 ± 5.20 ^ %	> 15.5
CCn1cc(Cl)c(C(=O)OCC23CCC4c5ccccc5OC(C)(CC2C)C4C3C)n1 (stereo not shown) [SR-01000479575]	−2.2E+0 ± 2.25 ^ %	–	–	0.24	58.09 ± 4.56	0.55	0.55	2.37	11.60 ± 7.12%	> 7.6
Cc1cccc(-n2ccnc2SCC(=O)Nc2cccc(C)c2C)c1 [SR-01000907209]	13.37 ± 4.41%	> 14.1	> 1.6	0.33	87.64 ± 8.11	0.62	0.62	–	18.39 ± 12.65%	> 14.1
Cc1ccc(Oc2ccc(OCC(=O)N3C(C)CCCC3C)cc2)cc1 (stereo not shown) [SR-01000445554]	28.29 ± 7.43%	> 13.6	> 4.5	0.29	80.54 ± 5.09	0.71	0.71	–	26.51 ± 5.44%	> 13.6
CC1=NN(Cc2ccc(Cl)cc2Cl)C(=O)C1 [SR-01000043246]	21.98 ± 2.69%	> 15.3	3.9	0.47	80.83 ± 4.99	2.61	2.61	1.01	6.06 ± 11.65%	> 15.3
Cc1c(-c2cccc(NC(=O)C3c4ccccc4Oc4ccccc43)c2)nc2ncccn12 [SR-01000907648]	35.82 ± 4.87%	> 14.1	1.5	0.25	88.60 ± 6.25	1.51	1.51	0.23	55.77 ± 9.26%	7.6

Now from value to compound, other results behind:

GRP139 Agonist activity Averaged Max % Response (±St. Dev.) [2]	EC50 [2] [µM]	EC50 [3] [µM]	GPR139 Antagonist Activity Ligand Efficiency [3]	GPR139 Antagonist Activity Averaged Max % Response (±St. Dev.) [3] [%]	GPR139 Antagonist Activity Lipophilic Efficiency (logD) [3]	GPR139 Antagonist Activity Lipophilic Efficiency (logP) [3]	GPR139 Antagonist Activity Hill Slope [3]	Compound	HEK antagonist activity Averaged Max % Response (±St. Dev.) [1]	EC50 [1] [µM]
3.98 ± 7.81%	> 10.6	2.1	0.23	82.63 ± 2.69	1.36	1.36	0.63	COc1cc(C(=O)Nc2ccc(N3C(=O)c4ccc(Cl)cc4C3=O)c(C)c2)cc(OC)c1OC [SR-01000419723]	25.06 ± 17.50%	> 10.6
19.55 ± 6.15%	> 10.5	1.1	0.24	90.79 ± 3.84	−130.5E−3	−130.5E−3	1.41	COc1cccc(OC)c1C(=O)Oc1ccc2c(=O)c(-c3ccc(Cl)cc3)c(C(F)(F)F)oc2c1 [SR-01000471218]	69.47 ± 1.93%	10.1
−9.5E+0 ± 9.17 ^ %	> 11.7	8.8	0.25	57.55 ± 8.35	−866.9E−3	−866.9E−3	1.89	CCCc1sc(N2CCN(C(=O)c3ccccc3)CC2)nc1-c1ccccc1 [SR-01000451510]	16.06 ± 4.81%	> 11.7
15.11 ± 5.37%	> 12.5	3.6	0.32	87.35 ± 5.76	0.49	0.49	1.28	O=C(NCCC1CCCCC1)N1c2ccccc2Sc2ccccc21 [SR-01000452455]	0.92 ± 5.75%	> 12.5
3.89 ± 5.42%	> 10.8	7.9	0.22	56.80 ± 4.90	−1.1E+0	−1.1E+0	0.94	COc1ccc(C(C(=O)NC(C)c2ccccc2)(c2ccccc2)c2ccccc2)cc1 (stereo not shown) [SR-01000529482]	16.45 ± 6.46%	> 10.8
5.85 ± 3.71%	> 11.3	5	0.26	77.15 ± 0.74	−521.6E−3	−521.7E−3	1.24	O=C(CSc1nc(-c2ccccc2)cn1-c1ccc(F)cc1)Nc1ccccc1 [SR-01000555413]	−6.1E+0 ± 7.39 ^ %	> 11.3
1.48 ± 6.53%	> 11	5.2	0.25	71.75 ± 3.35	−1.4E+0	−1.4E+0	0.81	Cc1ccc(-n2cc(-c3ccccc3)nc2OCC(=O)Nc2ccccc2C)cc1 [SR-01000555462]	9.21 ± 12.02%	> 11
25.84 ± 3.55%	> 12	2.7	0.39	85.61 ± 2.70	0.57	0.57	1.30	CCCCCCOC(=S)SCC(=O)Nc1ccccc1 [SR-01000508699]	23.85 ± 9.06%	> 12

— patent US20250099420A1, “SMALL MOLECULE MODULATORS OF GPR139 COMPLEX” (University of Florida Research Foundation, Incorporated, priority 2022, published 2025)
